Source: article PMC12670405, “Second-Generation AURKA-Targeting PROTACs: Structural Optimization toward in Vivo Degradation in Neuroblastoma” (Journal of Medicinal Chemistry, 2025)
Where two headings read alike, the source gives them in different places.

Tests used:
[1] = Metabolic stability in mouse liver microsomes (MLM); assay type: in vitro ADME, CD-1 mouse; settings: CD-1
Description: (§1) Plasma and metabolic stability tests were performed by Eurofins Discovery. For the plasma stability assay, test compounds were incubated in CD-1 mouse plasma for 0, 0.5, 1, 1.5, and 2 h at 37 °C at a concentration of 1 μM. For the metabolic stability assay, test compounds were incubated at 37 °C in either (1) CD-1 mouse liver microsomes (MLM) (0.1 mg/mL) at a concentration of 0.1 μM for 0, 15, 30, 45, and 60 min or (2) CD-1 mouse hepatocytes (MH) (0.7 million viable cells/mL) at a concentration of 1 μM for 0, 0.5, 1, 1.5, and 2 h. At the respective time points, acetonitrile was added to the incubation mixture followed by centrifugation. Samples were analyzed by HPLC-MS/MS and peak areas were recorded for each analyte. Compound stability, expressed as the percentage of parent compound remaining, was calculated by comparing the peak area of the compound at each time point relative to that of the 0h time point. Percentage compound remaining is plotted as a function of time as a logarithmic curve. Half-life (t 1/2) is estimated from the slope of the initial linear range of the curve, assuming first-order kinetics. […] Both plasma and metabolic assay experiments were performed once with 2 replicate samples each.

NGP = assay: IncuCyte live-cell imaging, antiproliferative effect; assay type: cell-based; settings: Homo sapiens, 72 h
Method in brief: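 Cells seeded in 384-well plates (neuroblastoma 1200–5000, HEK293T 600 cells/well), adhered overnight, then compound-treated in duplicate or triplicate; confluency tracked by IncuCyte live-cell imaging. Normalized confluence averaged from 3 experiments; absolute GI50 interpolated from four-parameter variable-slope curves.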

Plasma stability assay = assay type: in vitro ADME, CD-1 mouse; settings: for half-life at 1 μM: CD-1 mouse plasma, 37 °C, read-out: plasma t1/2
Description: as §1

[2] = Metabolic stability in mouse hepatocytes (MH); assay type: in vitro ADME, CD-1 mouse; settings: CD-1
Description: as §1

microsomal CLint at 0.1 μM [1] [µL/min/mg] | half-life at 1 μM (Plasma stability assay) [h] | plasma t1/2 (Plasma stability assay) [h] | hepatocyte CLint at 1 μM [2] [µL/min/1e6 cells] | SMILES | GI50 (NGP; read-out: GI50 72h, 72h) [nM] | GI50 (NGP; read-out: pGI50 (converted)) [nM] | GI50 (NGP; read-out: Cell GI50 72h, NGP (Figure 4B)) [nM]
437 | > 2 | > 2 | < 4.1 | Cc1cc(Nc2ccc(F)c(CC3(C(=O)N4CCC(CN5CCN(c6ccc(N7CCC(=O)NC7=O)cn6)CC5)CC4)CCN(Cc4cccc(Cl)c4F)CC3)n2)n[nH]1 [SK4454] | 35 | 34.7 | –
1390 | 1.12 | – | – | O=C1CCC(N2C(=O)c3cccc(OCCOCCOCCOCCNC(=O)[C@]4(Cc5cccc(Nc6nccs6)n5)CC[C@@H](Oc5cccc(Cl)c5F)CC4)c3C2=O)C(=O)N1 (some centres unmarked) [SK2188, reference compound] | 40 | 39.8 | 19

The next lines start with the molecule.

SMILES | microsomal CLint at 0.1 μM [1] [µL/min/mg] | half-life at 1 μM (Plasma stability assay) [h] | plasma t1/2 (Plasma stability assay) [h] | hepatocyte CLint at 1 μM [2] [µL/min/1e6 cells] | GI50 (NGP; read-out: GI50 72h, 72h) [nM] | GI50 (NGP; read-out: pGI50 (converted)) [nM] | GI50 (NGP; read-out: Cell GI50 72h, NGP (Figure 4B)) [nM]
Cc1cc(Nc2ccc(F)c(CC3(C(=O)N4CC(N5CCN(c6ccc(NC7CCC(=O)NC7=O)cc6F)CC5)C4)CCN(Cc4cccc(Cl)c4F)CC3)n2)n[nH]1 (centres unmarked) [PROTAC 29] | 438 | > 2 | > 2 | < 4.1 | 36 | 36.3 | –
O=C1CCN(c2ccc(N3CCN(CC4CN(C(=O)[C@]5(Cc6cccc(Nc7nccs7)n6)CC[C@@H](Oc6cccc(Cl)c6F)CC5)C4)CC3)nc2)C(=O)N1 [PROTAC 23] | 666 | > 2 | > 2 | < 4.1 | 24 | 23.4 | –
Cc1cc(Nc2ccc(F)c(CC3(C(=O)N4CCC(F)(CN5CCN(c6ccc(N7CCC(=O)NC7=O)cn6)CC5)CC4)CCN(Cc4cccc(Cl)c4F)CC3)n2)n[nH]1 [SK5527] | 582 | > 2 | > 2 | 4.4 | 42 | 41.7 | –
O=C1CCC(Nc2ccc(N3CCN(C4CN(C(=O)[C@]5(Cc6cccc(Nc7nccs7)n6)CC[C@@H](Oc6cccc(Cl)c6F)CC5)C4)CC3)c(F)c2)C(=O)N1 (some centres unmarked) [PROTAC 18] | 369 | > 2 | > 2 | < 4.1 | 17 | 17 | –
O=C1CCN(c2ccc(N3CCN(CC4CCN(C(=O)[C@]5(Cc6cccc(Nc7nccs7)n6)CC[C@@H](Oc6cccc(Cl)c6F)CC5)CC4)CC3)nc2)C(=O)N1 [PROTAC 24] | 565 | > 2 | > 2 | < 4.1 | 28 | 27.5 | –
